From US10376529B2, “Combination of pentacyclic triterpenes and hydroxytyrosol and derivatives thereof” (NATAC BIOTECH, S.L, priority 2013, dated 2019)

What was measured:
[1] = tested on: BV2 microglia; experiment: Nitric oxide production (nitrite, Griess reaction) by LPS plus IFNγ activated BV2 microglia; type: cell-based, mouse; conditions: LPS 100 ng/mL + IFNγ 50 pg/mL, 24 h
Description: BV2 cells are a murine microglial-derived cell line widely used as in vitro model for the study of compounds that could modulate microglial mediated neuronal damage. When stimulated, BV2 microglia releases neurotoxic and neuroinflammatory factors such as tumor necrosis factor alpha (TNFα), interleukin 6 (IL6) or nitric oxide (NO).
The mouse microglial cell line BV-2 was purchased at the Istituto Nazionale per la Ricerca sul Cancro (1ST, Genova, Italy). BV-2 cells were cultured in RPMI-1640 medium (Gibco Invitrogen, Paisley, Scotland, UK) supplemented with 10% FBS and 0.1% penicillin-streptomycin (both from Gibco Invitrogen). Cells were maintained at 37° C. in a 5% CO2 humidified atmosphere. BV-2 microglial cells were seeded at a density of 5×10^4 cells/mL. The following day, cells were treated with the compound of formula (I), the compound of formula (II) or the combination of both compounds, 30 minutes before stimulation with LPS 100 ng/mL and gamma-interferon (IFNγ) 50 pg/mL (both from Sigma-Aldrich, St. Louis, Mo., USA). Control wells contained the same final concentration of vehicle as the compound-containing wells. Culture supernatants were collected 24 h after LPS/IFNγ stimulation and stored at −20° C. until assayed for nitrites analysis.
Nitrite levels, direct indicators of NO production, were quantified by the Griess reaction. Briefly, 50 μL of culture medium was mixed in a 96-well plate with 25 μL of Griess reagent A (sulfanilamide, Sigma-Aldrich) and 25 μL of reagent B (N-1-naphthyl ethylene-diamine, Sigma-Aldrich). After color development (10 min at 23 to 25° C.), samples were measured at 540 nm on a microplate reader (BioTek ELX800, BioTek Instruments Inc., Vermont, USA). Nitrite concentration was determined from a sodium nitrite standard curve. Values of at least three independent wells from three experiments were calculated.
The compound of formula (I) was oleanolic acid (4.44 mg/L), the compound of formula (II) was verbascoside (3.12 mg/L), and the combination of the compound of formula (I) and the compound of formula (II) comprised oleanolic acid (4.44 mg/L) and verbascoside (3.12 mg/L). Stock solutions of the compounds (50 mM) were prepared in dimethyl sulfoxide (DMSO, Sigma-Aldrich). Solutions for cell treatment were prepared by diluting stock solutions in culture media immediately before being added to the cells (DMSO concentration: 0.5%). Controls contained the same final concentration of vehicle as the compound-containing wells. Three independent experiments were carried out.
The procedures for this assay were as described above in Example 2, wherein the compound of formula (I) was maslinic acid (13.20 mg/L), the compound of formula (II) was verbascoside (3.12 mg/L), and the and the combination of the compound of formula (I) and the compound of formula (II) comprised maslinic acid (13.20 mg/L) and verbascoside (3.12 mg/L). Stock solutions of the compounds (50 mM) were prepared in dimethyl sulfoxide (DMSO, Sigma-Aldrich). Solutions for cell treatment were prepared by diluting stock solutions in culture media immediately before being added to the cells (DMSO concentration: 0.5%). Controls contained the same final concentration of vehicle as the compound-containing wells. Three independent experiments were performed.

[2] = tested on: NSC34 motor neurons; experiment: NSC34 motor neuron viability (MTT) after hydrogen peroxide insult; type: cell-based, murine; conditions: H2O2 0.2 mM 30 min, MTT after 24 h
Excerpt: NSC34 murine spinal cord motor neuron derived cell line was used for this assay. This neuronal cell line is a classical in vitro platform validated for the study of neuroprotective agents. They share a lot of common physiological features with spinal cord neurons such as glutamate sensibility, acetyl choline secretion upon stimulation, functional neurites or characteristic neuronal sensibility and protection mechanisms against neurotoxic agents. Motoneuronal NSC-34 cells (Cedarlane, Burlington, Ontario, Canada) were cultured at 37° C. and 5% CO2 in Dulbecco's modified Eagle's medium (DMEM) supplemented with 10% fetal bovine serum (FBS), 1% penicillin/streptomycin and 0.04 mM L-glutamine. All reagents were purchased at Gibco-Invitrogen. NSC34 cells were seeded at low density (30000 cel/mL) in appropriate tissue culture vessels, 24-well plates for toxicity assays. In the experiments, cells were pretreated for 2 h with the compound of formula (I) (oleanolic acid, 4.44 mg/L), the compound of formula (II) (hydroxytyrosol, 1.54 mg/L) or the combination of the compound of formula (I) (oleanolic acid, 4.44 mg/L) and the compound of formula (II) (hydroxytyrosol, 1.54 mg/L). Stock solutions of the compounds (50 mM) were prepared in dimethylsulfoxide (DMSO, Sigma-Aldrich). Solutions for cell treatment were prepared by diluting stock solutions in culture media immediately before being added to the cells (DMSO concentration: 0.5%). Controls contained the same final concentration of vehicle as the compound-containing wells. Hydrogen peroxide (H2O2) stock was a 30% solution in water (Aldrich). The medium was removed and replaced with a suitable volume of fresh DMEM plus FBS (Gibco). Small hydrogen peroxide aliquots were then added to a final concentration of 0.2 mM. Cells were then exposed for 30 min at 37° C. After this time the medium was removed and replaced with fresh one. The compounds were maintained in the medium for 24 hours. After this 24 hours cell viability was tested using the 3-[4,5-dimethylthiazol-2-yl]-2,5-diphenyltetrazolium bromide (MTT, Sigma) assay. After color development (15 min at 37° C.), samples were measured at 570-620 nm on a microplate reader (BioTek ELX800, BioTek Instruments Inc., Vermont, USA). Mean values of at least three independent wells from three experiments were calculated, and cell survival expressed as percent […] signal compared with untreated control conditions.

[3] = oleanolic acid 4.44 mg/L alone, listed as OLA

SMILES: C[C@@H]1O[C@@H](O[C@@H]2[C@@H](O)[C@H](OCCc3ccc(O)c(O)c3)O[C@H](CO)[C@H]2OC(=O)/C=C/c2ccc(O)c(O)c2)[C@H](O)[C@H](O)[C@H]1O [verbascoside]
- BV2 NO reduction (vs. LPS + IFNγ) ([1]; verbascoside 3.12 mg/L alone): 14.67%
- BV2 NO reduction (vs. LPS + IFNγ) ([1]; verbascoside 3.12 mg/L alone, listed as VRB): 14.67%

SMILES: OCCc1ccc(O)c(O)c1 [hydroxytyrosol, 2-(3,4-dihydroxyphenyl)ethanol]
- NSC34 survival increase (vs. H2O2) ([2]; hydroxytyrosol 1.54 mg/L alone): 21.67%
- NSC34 survival increase (vs. H2O2) ([2]; hydroxytyrosol 1.54 mg/L alone, listed as HST): 21.67%

SMILES: CC1(C)CC[C@]2(C(=O)O)CC[C@]3(C)C(=CC[C@@H]4[C@@]5(C)CC[C@H](O)C(C)(C)[C@@H]5CC[C@]43C)[C@@H]2C1 [oleanolic acid]
- BV2 NO reduction (vs. LPS + IFNγ) ([1]; oleanolic acid 4.44 mg/L alone): 17.33%
- BV2 NO reduction (vs. LPS + IFNγ) [1, 3]: 17.33%
- NSC34 survival increase (vs. H2O2) ([2]; oleanolic acid 4.44 mg/L alone): 5.33%
- NSC34 survival increase (vs. H2O2) [2, 3]: 5.33%

SMILES: CC1(C)CC[C@]2(C(=O)O)CC[C@]3(C)C(=CC[C@@H]4[C@@]5(C)C[C@@H](O)[C@H](O)C(C)(C)[C@@H]5CC[C@]43C)[C@@H]2C1 [maslinic acid]
- BV2 NO reduction (vs. LPS + IFNγ) ([1]; maslinic acid 13.20 mg/L alone): 18.67%
- BV2 NO reduction (vs. LPS + IFNγ) ([1]; maslinic acid 13.20 mg/L alone, listed as MSA): 18.67%
